Converted amounts (≈) assume the structure as drawn.
Tests used:
[1] = target: T1, Interleukin-2 receptor subunit alpha (Homo sapiens, UniProt P01589); assay: Competitive inhibition of IL2 receptor alpha (unknown origin)
T1 sequence (P01589 whole entry): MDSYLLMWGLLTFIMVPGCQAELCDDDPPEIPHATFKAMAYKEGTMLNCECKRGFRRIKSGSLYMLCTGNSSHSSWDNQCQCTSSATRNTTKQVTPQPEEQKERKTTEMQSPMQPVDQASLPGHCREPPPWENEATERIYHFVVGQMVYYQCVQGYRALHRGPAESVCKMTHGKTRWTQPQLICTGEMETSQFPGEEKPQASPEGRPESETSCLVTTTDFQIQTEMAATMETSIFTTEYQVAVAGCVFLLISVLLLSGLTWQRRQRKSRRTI

PBMC [2] = assay: Immunosuppressive activity in human PBMC assessed as inhibition of PHA-induced T cell proliferation after 72 hrs by [3H]thymidine incorporation assay; format: functional, cell-based
PBMC [3] = assay: Immunosuppressive activity in human PBMC assessed as inhibition of PHA/PMA-induced IL-2 production after 18 hrs by ELISA; format: functional, cell-based
CC-1 = assay: Cytotoxicity against rat CC1 after 48 hrs by MTT assay; format: cell-based; conditions: CC-1, 48 h
3T3-L1 = assay: Cytotoxicity against mouse 3T3L1 after 48 hrs by MTT assay; format: cell-based; conditions: 3T3-L1, 48 h
Blood = assay: Inhibition of ROS production in human whole blood after 30 mins by luminol-based chemiluminescence assay; format: functional, tissue-based; conditions: 0.5 h

Structure (SMILES)	IC50 [1]	IC50 (Blood)	IC50 (PBMC [2])	IC50 (PBMC [3])	IC50 (CC-1)	IC50 (3T3-L1)
CC1C/C(=N\NC(=O)Nc2ccccc2)Nc2cc([N+](=O)[O-])ccc2N1 (configuration not stated)			25.5 µg/mL (≈ 72 µM)			
O=C(/C=C/c1ccccc1)c1ccccc1O [2'-HYDROXYCHALCONE]			11 µg/mL (≈ 49.1 µM)	19.7 µg/mL (≈ 87.8 µM)		
CC1CC(=O)Nc2cc(N)ccc2N1 (configuration not stated)		4.5 µg/mL (≈ 23.5 µM)	4.4 µg/mL (≈ 23 µM)	13 µg/mL (≈ 68 µM)		
CC1(C)CC(=O)Nc2cc([N+](=O)[O-])ccc2N1		12.4 µg/mL (≈ 52.7 µM)				

The next lines start with results.

IC50 [1]	IC50 (Blood)	Structure (SMILES)	IC50 (PBMC [2])	IC50 (PBMC [3])	IC50 (CC-1)	IC50 (3T3-L1)
6 µM		COC(=O)[C@H](Cc1ccc(C#Cc2ccccc2)cc1)NC(=O)C[C@H]1CCCN(C(=N)N)C1				
	24.4 µg/mL (≈ 94.7 µM)	Nc1ccc(C(=O)/C=C/c2cccc(Cl)c2)cc1	< 0.5 µg/mL	2.5 µg/mL (≈ 9.7 µM)	16.7 µg/mL (≈ 64.8 µM)	9.5 µg/mL (≈ 36.9 µM)
	12.4 µg/mL (≈ 52.3 µM)	Cc1ccc(/C=C/C(=O)c2ccc(N)cc2)cc1	3.2 µg/mL (≈ 13.5 µM)	15.1 µg/mL (≈ 63.6 µM)		
	31 µg/mL (≈ 139 µM)	Cc1ccc(/C=C/C(=O)c2ccccc2)cc1	7.8 µg/mL (≈ 35.1 µM)	15.6 µg/mL (≈ 70.2 µM)		
	4.8 µg/mL (≈ 21.4 µM)	O=C(/C=C/c1ccccc1)c1cccc(O)c1	8.2 µg/mL (≈ 36.6 µM)	14.2 µg/mL (≈ 63.3 µM)		
